# In patent US10280179B2, “Spiroquinoxaline derivatives as inhibitors of non-apoptotic regulated cell-death” (Helmholtz Zentrum Munchen—Deutches Forschungszentrum Fur …, priority 2013, dated 2019):
# Columns and labels:
# Pfa1 cells = experiment: Inhibition of non-apoptotic cell death after tamoxifen-induced GPx4 knockout in a recombinant cell line (Example B.4); type: cell-based; settings: Mus musculus, read-out: Pfa1/TAM IC50
# Procedure, shortened: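 Immortalised murine fibroblasts with tamoxifen-inducible CreERT2 for ablation of both GPx4 copies (Pfa1 cells) received tamoxifen on day 0 together with test compound. Cell survival was measured by AlamarBlue after 72 hours.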
# C57BL/6 mice = experiment: Traumatic brain injury (controlled cortical impact) animal model (Example C.5); type: in vivo, mouse; settings: TBI (CCI), 24 h after CCI, compared to vehicle control, FIG. 4
# Description: FIG. 4: Efficiency of a compound of the invention in an animal model of traumatic brain injury.
# Briefly, to test such utility of compounds disclosed herein, male C57BL/6 mice are anesthetised prior to the induction of trauma. Core body temperature is maintained at 37° C. using a feedback-controlled heating pad connected to a rectal probe. To induce trauma, a craniotomy is prepared over the right parietal cortex. Controlled cortical impact (CCI) is delivered perpendicular to the surface of the brain with a custom-made CCI applicator for mice using the following parameters: 8 m/s velocity, 3 mm diameter, 1 mm brain displacement and 150 ms duration. Following CCI, the skull is closed by affixing the removed bone flap using veterinary-grade tissue glue (Vetbond, 3M, St. Paul, Minn.). Compounds are administered at 1 mg/Kg or 10 mg/Kg (dissolved in 40% PEG) 15 minutes after TBI induction and 40% PEG is included as vehicle control. The animals are recovered from anesthesia in an incubator heated to 33° C. Animals are sacrificed and the brain is removed 24 h after CCI and immediately frozen on crushed dry ice and stored at −80° C. […] The sections are stained with cresyl violet for quantifying the area of contused brain, and contusion volume is calculated and the effect of the compounds tested observed following analysis of such data.
# SH-SY5Y cells = experiment: TNF-alpha-induced apoptosis, specificity for non-apoptotic cell death (Example B.3); type: cell-based, human; settings: compound 1 μM, TNF-alpha 10 ng/mL, FIG. 1
# Description: SH-SY5Y cells were propagated and seeded in 96-well plates, together with compound N-1, N-2, N-10 of Table 1-N (FIG. 1(a)), compound O/S-6 or O/S-3 of Table 1-O/S (FIG. 1(b)), or compound C-12, C-91, or C-205 of Table 1-C (FIG. 1(c)) (each 1 μM) and TNF-alpha was added (final concentration: 10 ng/mL) to induce apoptosis. The apoptosis and pan-caspase inhibitor z-vad (final concentration: 50 μM) and the necroptosis inhibitor Necrostatin-1 (Nec-1; final concentration: 5 μM) were used for comparison. Control wells were established with vehicle only (DMSO), with and without treatment with TNF-alpha to induce apoptosis. Cells were incubated, and cell survival was detected and quantified. Percentage cell survival after TNF-alpha-induced apoptosis is shown (error bars indicate standard deviation (SD)).
# Briefly, SH-SY5Y cells were propagated and seeded in 96-well plates, together with the compound to be tested (1 μM), generally as described in Example B.1, except they were seeded at 1,000 cell/well and instead of BSO, TNF-alpha (Invitrogen) was added to a final concentration of 10 ng/mL to induce apoptosis. The apoptosis and pan-caspase inhibitor Z-VAD-fmk (Enzo Life Science; final concentration 50 μM) and the necroptosis inhibitor Necrostatin-1 (Nec-1; Enzo Life Science; final concentration 5 μM) were used for comparison. Control wells were established with vehicle only (DMSO), with and without treatment with TNF-alpha to induce apoptosis. Cells were incubated, and cell survival was detected and quantified as described in Example B.1.
compound,measurement,setting,value
Clc1cccc(CNC2=Nc3ccccc3NC23CCNCC3)c1 [N-2],IC50,Pfa1 cells,< 0.02 µM
same,contusion volume in the brains of mice following traumatic brain injury,C57BL/6 mice,trend of a (non-significant) positive effect
same,Percentage cell survival after TNF-alpha-induced apoptosis,SH-SY5Y cells,Non-inhibition of apoptotic cell-death
